{
  "source": "patent US5180725A",
  "about": "“Quinoxalinyl/quinoxaliy; alkyl-N-terminal amino hydroxy” (G. D. Searle & Co., priority 1991, dated 1993)",
  "origin": "cited, not measured here",
  "test_system": "hog renin",
  "settings": "after the injection of hog renin into nephrectomized rats",
  "note": "Square brackets hold non-standard residues; d marks the D form. Peptide text beside a SMILES is read from it. * marks the point of attachment. Sta = CC(C)C[C@H](N)[C@@H](O)CC(=O)O; Isovaleryl = CC(C)CC(=O)*",
  "data": [
    {"smiles": "CC(C)CC(=O)N[C@H](C(=O)N[C@H](C(=O)N[C@@H](CC(C)C)[C@@H](O)CC(=O)N[C@@H](C)C(=O)N[C@@H](CC(C)C)[C@@H](O)CC(=O)O)C(C)C)C(C)C", "note": "[pepstatin] (Isovaleryl-VV[Sta]A[Sta]-OH)", "values": [
      {"measurement": "blood pressure in vivo", "result": "found to reduce blood pressure in vivo"}
    ]}
  ]
}
